Reference: patent US11241398B2, “Affinity medicant conjugate” (Califia Pharma Inc., priority 2014, dated 2022)
Like-named read-outs stand apart in the source and are kept apart here. Marks after values point to notes of the source that are not given here. Residues, ends and D or L forms follow the SMILES beside them. *: point of attachment. X3 = CC1=C(C*)C2=C(C)C3(CC3)C(C)(O)C(=O)C2=C1

What was measured:
[1] = test system: 8392B cell line; assay: 48 hour exposure, growth or viability by Trypan Blue Exclusion assay, nontarget cell line; assay type: cell-based; conditions: for IC50: read-out: Mean IC50 value, 8392B Nontarget Cell Line, 48 hr exposure, 8392B nontarget cell line, 48 hr exposure, mean ± SD, N = 3 unless otherwise indicated
Experimental: (§1) The MV522 cell line is a lung-derived adenocarcinoma cell line. In various embodiments of the invention, the MV522 cell line represents a “target” cell line. […] The two hour toxicity data represents the concentration of a given analog for which a two hour exposure will inhibit 50% of the DNA synthesis activity in a given cell line. The 48 hour exposure data represents the concentration at which a given analog with a 48 hour exposure will inhibit the growth or viability in a given cell line as defined by the standard Trypan Blue Exclusion assay.

[2] = test system: MV522 cell line; assay: two hour toxicity: inhibition of 50% of DNA synthesis activity, target cell line; conditions: for IC50: read-out: Mean IC50 value, MV522 Target Cell Line, 2 hr exposure, MV522 target cell line, 2 hr exposure, mean ± SD, N = 3 unless otherwise indicated; for cytotoxicity (in words): see Table XV
Experimental: as §1

[3] = test system: 8392B cell line; assay: two hour toxicity: inhibition of 50% of DNA synthesis activity, nontarget cell line; assay type: cell-based; conditions: read-out: Mean IC50 value, 8392B Nontarget Cell Line, 2 hr exposure, mean ± SD, N = 3 unless otherwise indicated
Experimental: as §1

[4] = test system: MV522 cell line; assay: 48 hour exposure, growth or viability by Trypan Blue Exclusion assay, target cell line; assay type: cell-based; conditions: read-out: Mean IC50 value, MV522 Target Cell Line, 48 hr exposure, mean ± SD, N = 3 unless otherwise indicated
Experimental: as §1

[5] = test system: HT29 (ER Negative); assay: cytotoxic data IC50, 2 hour exposure, cells not expressing the estrogen receptor; assay type: cell-based; conditions: N = 3, mean ± SD
Excerpt: (§2) MCF7 over express estrogen alpha-receptors.
(§3) MCF7 cells over express estrogen alpha-receptors.

[6] = test system: MCF7 (ER positive); assay: cytotoxic data IC50, 2 hour exposure, cells expressing the estrogen receptor; assay type: cell-based; conditions: for preferential killing of MCF7 (ER positive) versus ER negative cells: Table VII
Excerpt: as §2, §3

[7] = test system: NCI-DTP 60 cell line panel; conditions: cited from earlier work
[8] = test system: MDR phenotypes; assay: multidrug resistance studies (mechanisms of drug resistance); assay type: cell-based; conditions: multi-medicant resistance phenotype, Bcl-2 over expression, p53 and p21/WAF1 mutations
[9] = test system: hormone-refractory prostate cancer; conditions: cited from earlier work

SMILES: CC1=C(CO)C2=C(C)C3(CC3)[C@@](C)(O)C(=O)C2=C1 [Analog 002]
- inhibition of the nontarget cell line with prolonged exposure ([1]; prolonged exposure period (e.g. 48 hours)): can eventually inhibit the nontarget cell line

SMILES: CC1=C(COC2OC(CO)C(O)C(O)C2O)C2=C(C)C3(CC3)C(C)(O)C(=O)C2=C1 (stereo not shown) [Analog 018]
- IC50 [2]: 8.8 ± 2.9 µM

SMILES: CC1=C(CSCCC(N)C(=O)O)C2=C(C)C3(CC3)[C@@](C)(O)C(=O)C2=C1 (stereo partly shown) [Analog 097]
- IC50 [3]: > 82 µM

SMILES: CC1=C(CSC[C@@H](C)C(=O)N2CCCC2C(=O)O)C2=C(C)C3(CC3)[C@@](C)(O)C(=O)C2=C1 (stereo partly shown) [Analog 098]
- IC50 [2]: 18.8 ± 2.5 µM
- IC50 [3]: > 65 µM
- IC50 [4]: 4.6 ± 0.25 µM
- IC50 [1]: 11.7 ± 1.8 µM

SMILES: CC1=C2C(=O)C(C)(CO)C=C2C(=O)C(C)(O)C12CC2 (stereo not shown) [Analog 099]
- IC50 [2]: 8.4 ± 1.1 µM
- IC50 [3]: 4 ± 0.4 µM

SMILES: CC1=C(CSCC(N)C(=O)NC(CC(N)=O)C(=O)NCC(=O)NC(CCCNC(=N)N)C(=O)NC(CS)C(=O)O)C2=C(C)C3(CC3)C(C)(O)C(=O)C2=C1 (stereo not shown) [Analog 102] (H-C(X3)NGRC-OH; configuration not given here)
- IC50 [2]: > 13 µM

SMILES: CC(=O)OCC1=C(CO)C=C2C(=O)C(C)(OC(C)=O)C3(CC3)C(C)=C21 (stereo not shown) [Analog 103]
- IC50 [2]: 31.8 ± 4.9 µM
- IC50 [3]: 12.1 ± 2 µM
- IC50 [4]: 5.9 ± 0.4 µM

SMILES: CC1=C2C(=CC(C)(C)[C@@H]2OC(=O)CCCC(=O)Oc2ccc3c(c2)CC[C@@H]2[C@@H]3CC[C@]3(C)C(=O)CC[C@@H]23)C(=O)[C@](C)(O)C12CC2 [Analog 107]
- IC50 [2]: > 50 µM
- IC50 [3]: > 50 µM

SMILES: CC1=C(CCC(=O)Oc2ccc3c(c2)CCC2C3CCC3(C)C(O)CCC23)C2=C(C)C3(CC3)C(C)(O)C(=O)C2=C1 (stereo not shown) [Analog 108]
- IC50 [5]: > 55 µM
- IC50 ([6]; N = 3, mean ± SD): 14.1 ± 2.8 µM
- IC50 [2]: 12.3 ± 2.3 µM
- IC50 [3]: > 55 µM
- IC50 [4]: 0.52 ± 0.05 µM

SMILES: CC1=C2C(=CC(C)(C)C2OC(=O)CCCC(=O)Oc2ccc3c(c2)CCC2C3CCC3(C)C(O)CCC23)C(=O)C(C)(O)C12CC2 (stereo not shown) [Analog 109]
- IC50 [2]: > 50 µM
- IC50 [3]: > 50 µM

SMILES: CC1=C(CCC(=O)Oc2ccc3c(c2)CC[C@@H]2[C@@H]3CC[C@]3(C)C(=O)CC[C@@H]23)C2=C(C)C3(CC3)[C@@](C)(O)C(=O)C2=C1 [Analog 110]
- IC50 [5]: > 19 µM
- preferential killing of MCF7 (ER positive) versus ER negative cells [6]: preferentially killed
- IC50 [2]: > 55 µM
- IC50 [3]: > 55 µM
- IC50 [1]: 25.3 ± 2.1 µM

SMILES: CC1=C(CCC(=O)OC2CCC3(C)C(CCC4C5CCC(=O)C5(C)CCC43)C2)C2=C(C)C3(CC3)[C@@](C)(O)C(=O)C2=C1 (stereo partly shown) [Analog 112]
- IC50 [3]: 14.9 ± 0.1 µM
- IC50 [1]: 5.2 ± 0.3 µM

SMILES: CC1=C2C(=CC(C)(COC(=O)CCCC(=O)O)C2OC(=O)CCCC(=O)O)C(=O)C(C)(O)C12CC2 (stereo not shown) [Analog 117]
- IC50 [1]: 0.01 ± 0.002 µM

SMILES: CC1=C2C(=CC(C)(COC(=O)c3cc([N+](=O)[O-])cc([N+](=O)[O-])c3)C2OC(=O)CCCC(=O)O)C(=O)C(C)(O)C12CC2 (stereo not shown) [Analog 118]
- IC50 [3]: 24.5 ± 4.5 µM

SMILES: CC(=O)ON(C(C)=O)c1ccc(C(=O)OCC2(C)C=C3C(=O)C(C)(O)C4(CC4)C(C)=C3C2O)cc1 (stereo not shown) [Analog 136]
- IC50 [3]: > 6.2 µM

SMILES: CC(=O)ON(C(C)=O)c1ccc(C(=O)OCC2(C)C=C3C(=O)C(C)(O)C4(CC4)C(C)=C3C2OC(=O)c2ccc(N(OC(C)=O)C(C)=O)cc2)cc1 (stereo not shown) [Analog 140]
- IC50 [4]: > 14 µM
- IC50 [1]: > 14 µM

SMILES: COC(=O)C1=C(C(=O)OC)C23C=C(C)C1C2=C(C)C1(CC1)C(C)(O)C3O (stereo not shown) [Analog 141]
- IC50 [3]: 13.7 ± 1.9 µM
- IC50 [4]: 3.7 ± 0.8 µM

SMILES: COC(=O)C1=C(C(=O)OC)C23C=C(C)C1C2=C(C)C1(CC1)C(C)(O)C3=O (stereo not shown) [Analog 142]
- IC50 [4]: 0.024 ± 0.007 µM

SMILES: CON(CC1=C(C)C=C2C(=O)[C@](C)(O)C3(CC3)C(C)=C21)C(=O)C(N)Cc1c[nH]c2ccccc12 (stereo partly shown) [Analog 154]
- IC50 [2]: > 70 µM
- IC50 [3]: > 70 µM

SMILES: CC1=C(OC(=O)CCCCC(=O)c2ccccc2)C2=C(C)C3(CC3)[C@@](C)(O)C(=O)C2=C1 [Analog 158]
- IC50 [2]: > 175 µM
- IC50 [3]: > 200 µM

SMILES: CC1=C2C(=O)C(C)(OC(C)C)CC2C(O)C(=O)C12CC2 (stereo not shown) [Analog 183]
- IC50 [2]: > 120 µM
- IC50 [3]: > 120 µM
- IC50 [1]: > 235 µM

SMILES: CC1=CC2C(=C(C)C3(CC3)C(C)(O)C2O)C1=O (stereo not shown) [Analog 186]
- IC50 [2]: 144 ± 32 µM
- IC50 [4]: 70 ± 16 µM

SMILES: CC1=C(CN2C(=O)C=CC2=O)C2=C(C)C3(CC3)[C@@](C)(O)C(=O)C2=C1 [Analog 189]
- cytotoxicity (in words) [2]: cytotoxic with nM activity

SMILES: CC1=C(CCCN2C(=O)C=CC2=O)C2=C(C)C3(CC3)[C@@](C)(O)C(=O)C2=C1 [Analog 190]
- cytotoxicity (in words) [2]: cytotoxic with nM activity

SMILES: CC1=C2C(=CC(C)(CO[Si](C)(C)C(C)(C)C)C2N)C(=O)C(C)(O)C12CC2 (stereo not shown) [Analog 205]
- IC50 [2]: 8.4 ± 2.2 µM
- IC50 [3]: > 185 µM
- IC50 [1]: > 2.6 µM

SMILES: CC1=C(COC(=O)CCCCCN2C(=O)C=CC2=O)C2=C(C)C3(CC3)[C@@](C)(O)C(=O)C2=C1 [Analog 217]
- cytotoxicity (in words) [2]: cytotoxic with nM activity

SMILES: CC1=C2C(=CC(C)(C)[C@@H]2OC(=O)CCCCCN2C(=O)C=CC2=O)C(=O)[C@](C)(O)C12CC2 [Analog 218]
- cytotoxicity (in words) [2]: cytotoxic with nM activity
- IC50 [4]: 0.6 ± 0.2 µM
- IC50 [1]: 0.6 ± 0.1 µM

SMILES: CC1=C2C(=C[C@@](C)(CO[Si](C)(C)C(C)(C)C)[C@@H]2OC(=O)c2ccc(S(=O)(=O)F)cc2)C(=O)[C@](C)(O)C12CC2 [Analog 219]
- IC50 [2]: > 52 µM
- IC50 [3]: > 52 µM
- IC50 [1]: > 52 µM

SMILES: CC1=C2C(=CC(C)(C)[C@@H]2OC(=O)c2ccc(S(=O)(=O)F)cc2)C(=O)[C@](C)(O)C12CC2 [Analog 222]
- IC50 [3]: 9.3 µM

SMILES: CC1=CC2=C(C)C3(CC3)C(C)(O)C(=NO)C2=C1 (stereo not shown) [Analog 224]
- differential toxicity between the target and nontarget cell line ([2]; MV522 versus 8392B): no differential toxicity
- toxicity (in words) ([2]; target and nontarget cell line): minimal toxicity

SMILES: CC1=C(CCCNS(C)(=O)=O)C2=C(C)C3(CC3)[C@@](C)(O)C(=O)C2=C1 [Analog 241]
- IC50 [3]: > 28 µM

SMILES: CC1=C2[C@@H](O)C(C)(C)[C@H]3C[C@@]23C(=O)[C@](C)(O)C12CC2 [Analog 252]
- IC50 [2]: > 380 µM
- IC50 [3]: > 380 µM
- IC50 [1]: > 380 µM

SMILES: CC1=C(CCCNS(N)(=O)=O)C2=CC3(CC3)C(C)(O)C(=O)C2=C1 (stereo not shown) [Analog 264]
- IC50 [3]: > 85 µM
- IC50 [4]: 0.076 ± 0.017 µM

SMILES: CC1=C(CCCNC(=O)OCC2=C(C(=O)O)N3C(=O)C(NC(=O)Cc4cccs4)C3S(=O)(=O)C2)C2=C(C)C3(CC3)C(C)(O)C(=O)C2=C1 (stereo not shown) [Analog 274]
- IC50 [3]: > 46 µM
- IC50 [1]: > 4.5 µM

SMILES: CC[C@H](C)[C@@H]([C@@H](CC(=O)N1CCC[C@H]1[C@H](OC)[C@@H](C)C(=O)NCCc1ccccc1)OC)N(C)C(=O)[C@@H](NC(=O)[C@H](C(C)C)N(C)C)C(C)C [Auristatins]
- Mean LD50 cytotoxic ([7]; NCI DTP 60 cell line mean): >5,000 nM
- Mean TGI cytostatic ([7]; NCI DTP 60 cell line mean): 902** nM
- GI50 ([7]; read-out: Mean GI50 inhibition, NCI DTP 60 cell line mean): 0.0014 µM

SMILES: C=C1C[C@@H]2CC[C@@]34C[C@H]5O[C@H]6[C@@H](O3)[C@H]3O[C@H](CC[C@@H]3O[C@H]6[C@H]5O4)CC(=O)O[C@@H]3[C@@H](C)[C@@H]4O[C@@H]5C[C@]6(C[C@@H]7O[C@]8(C[C@H](C)[C@@H]9O[C@H]([C@@H](O)C[C@@H](O)CO)C[C@@H]9O8)C[C@H](C)[C@@H]7O6)O[C@@H]5C[C@@H]4O[C@H]3C[C@H]3O[C@@H](CC[C@@H]1O2)C[C@@H](C)C3=C [Halichondrin B]
- Mean TGI cytostatic ([7]; NCI DTP 60 cell line mean): 199 nM
- Mean LD50 cytotoxic [7]: >1,000 nM

SMILES: CC1=C2C(=CC(C)(C)[C@@H]2O)C(=O)[C@](C)(O)C12CC2 [Illudin M, reference compound]
- preferential killing of MCF7 (ER positive) versus ER negative cells [6]: to the same extent
- Mean LD50 cytotoxic ([7]; NCI DTP 60 cell line mean): 912 nM

SMILES: CC1=C(CO)C2=C(C)C3(CC3)[C@@](C)(O)C(=O)C2=C1 [Irofulven, 6-hydroxymethylacylfulvene]
- activity versus common resistance mechanisms [8]: independent of common resistance mechanisms
- clinical activity [9]: demonstrated clinical activity
- safety profile [9]: acceptable safety profile
